The subject of test [1] is Breast Cancer PDCs, ER/PR− Her2+ (Her2+). Briefly: Anti-proliferation assay on breast cancer Her2+ PDCs. The conditions noted are these: drug alone @ 10 uM; 10 µM. It is filed as cell-based, human. How it is done:
(§1) The outermost rows/columns of the plates were filled with PBS (pH 7.4) to avoid an edge-effect and were considered as blanks. Standardized aqueous extracts identified in Table 2 were prepared in main stock solutions by dissolving 1 mg of extract in 1 ml PBS (phosphate-buffered saline, pH 7.4). […] The plate was incubated in a CO2 incubator for 0/N incubation for 24 hours. […] Once extracts were added to incubated cells and mixed gently, the plate was given a brief spin and incubated in the CO2 incubator for 72 hours. The plate was removed from the incubator and 10 ul of detection reagent (CellTiterGlo®; Promega Corporation, Wisconsin, USA) added to each well of the 384 well plate. […] The assay described above is a two-dimensional (2D) assay.

Test [2] concerns Acute Promyelocytic Leukemia PDCs (APL-SB 46120). Briefly: Anti-proliferation assay on APL subtype AML PDCs. It is filed as cell-based. The conditions noted are these: Homo sapiens. As for the experimental part:
In this Example, AML drugs were used as disease specific controls.
The AML PDCs evaluated below were an Acute Promyelocytic Leukemia (APL, APML) subtype, APL-SB 46120, from a human subject.
IC25 values were calculated using IC50 and hill slope. […] The drugs were used in these concentrations on the new APL subtype cells as described further below. […]

Test [3] relates to Breast Cancer PDCs, Triple negative (TN), SB 36344. Briefly: Anti-proliferation assay on breast cancer TN PDCs. It is filed as cell-based, human. The conditions noted are these: drug alone @ 10 uM; for inhibition at 10 µM: Homo sapiens. As for the experimental part:
as §1

“And” between values parts separate entries of the source, which are not always exact repeats. Equal entries are not always repeated. Where two headings read alike, the source gives them in different places.

One compound from patent US20220233624A9, “ANTI-CANCER AND ANTI-PROLIFERATIVE COMPOSITIONS, AND METHODS FOR THEIR USE IN TREATING CANCER” (Natreon, Inc., priority 2020, published 2022) can be followed below.

A word on the inhibition: it is the share of the control response that was lost under treatment.

As to `COc1cccc2c1C(=O)c1c(O)c3c(c(O)c1C2=O)C[C@@](O)(C(=O)CO)C[C@@H]3O[C@H]1C[C@H](N)[C@H](O)[C@H](C)O1` [Doxorubicin, doxorubicin], the “% Inhibition Avg” value is 60% and 96% in test [1]; 93% in test [3] (10 µM). Also, the “% Inhibition, single replicates” value in test [1] is 62% and 58% and 95% and 97%; in test [3] (10 µM) it was 72% and 91% and 92%. Besides, the inhibition at 10 µM in test [2] (Plate 1 quality control, read-out: % Inhibition Average) was 96%; in test [2] (Plate 1 quality control, read-out: % Inhibition n1), 97%; in test [2] (Plate 1 quality control, read-out: % Inhibition n2), 96%; in test [2] (Plate 1 quality control, read-out: % Inhibition n3), 95%; in test [2] (Plate 2 quality control, read-out: % Inhibition Average) it was 97%; in test [2] (Plate 2 quality control, read-out: % Inhibition n1), 98%. Further, the inhibition at 10 µM in test [2] (Plate 2 quality control, read-out: % Inhibition n2) amounted to 97%; in test [2] (Plate 2 quality control, read-out: % Inhibition n3), 97%; in test [3] (read-out: % Inhibition Avg), 73%; in test [3] (read-out: % Inhibition, single replicates) it was 73%.
